# Assay results reported in ChEMBL document CHEMBL5338810, “Targeting Pancreatic Cancer with Novel Plumbagin Derivatives: Design, Synthesis, Molecular Mechanism, In Vitro and In Vivo Evaluation” (J Med Chem, 2023).
# Active and inactive are the calls of the source. No cut-off for these calls is given here.
# Tests used:
# PANC-1 [1] = test: Cytotoxicity against human PANC-1 cells in Dulbecco's modified Eagle's medium assessed as reduction in cell viability incubated for 24 hrs by WST-8 cell counting analysis; type: functional, cell-based; conditions: PANC-1, 24 h
# [2] = Selectivity ratio, ratio of IC50 for cytotoxicity against human PANC-1 cells in Dulbecco's modified Eagle's medium to PC50 for preferential cytotoxic activity against human PANC-1 cells in nutrient-deprived medium; type: functional
# PANC-1 [3] = test: Preferential cytotoxic activity against human PANC-1 cells in nutrient-deprived medium assessed as reduction in cell viability incubated for 24 hrs by WST-8 cell counting analysis; type: functional
# MIA PaCa-2 [4] = test: Antitumor activity against human MIA PaCa-2 cells xenografted in athymic BALB/c-nu mouse assessed as reduction in average mean wet weight at 250 ug, ip administered 5 times per week for 4 weeks and measured on day 32 (reference value: 465.4 mg); type: functional; conditions: dose 250 µg
# [5] = Inhibition of PI3K/Akt/mTOR signaling pathway in human PANC-1 cells in nutrient-deprived medium at 0.5 to 10 uM by Western blotting analysis; type: cell-based; conditions: dose 0.5-10 µM, time 3-6 hrs, TDE = time-dependent effect
# MIA PaCa-2 [6] = test: Antitumor activity against human MIA PaCa-2 cells xenografted in athymic BALB/c-nu mouse assessed as reduction in mean tumor volume at 250 ug, ip administered 5 times per week for 4 weeks and measured on day 18 (reference value: 447 mm3); type: functional; conditions: dose 250 µg
# MIA PaCa-2 [7] = test: Antitumor activity against human MIA PaCa-2 cells xenografted in athymic BALB/c-nu mouse assessed as reduction in average mean wet weight at 50 ug, ip administered 5 times per week for 4 weeks and measured on day 32 (reference value: 465.4 mg); type: functional; conditions: dose 50 µg
# [8] = Toxicity in athymic BALB/c-nu mouse xenografted with human MIA PaCa-2 cells assessed as changes in abdominal organs at 50 to 250 ug, ip administered 5 times per week for 4 weeks; type: organism-based; conditions: in vivo, 672 h, dose 50-250 µg
# [9] = Inhibition of PI3K/Akt/mTOR signaling pathway in human PANC-1 cells in nutrient-deprived medium incubated for 3 to 6 hrs by Western blotting analysis; type: cell-based; conditions: dose 0.5-10 µM, time 3-6 hrs
# PANC-1 [10] = test: Disruption of plasma membrane integrity in human PANC-1 cells in nutrient-deprived medium assessed as membrane blebs by measuring increase in red fluorescence at 1 uM incubated for 24 hrs by dual fluorescent staining based microscopic analysis; type: functional, cell-based
# [11] = Inhibition of PI3K/Akt/mTOR signaling pathway in human PANC-1 cells in nutrient-deprived medium assessed as redution in Akt phosphorylation at 0.5 to 10 uM incubated for 3 hrs by Western blotting analysis; type: cell-based; conditions: dose 0.5-10 µM
# [12] = Toxicity in athymic BALB/c-nu mouse xenografted with human MIA PaCa-2 cells assessed as survival at 50 to 250 ug, ip administered 5 times per week for 4 weeks; type: organism-based; conditions: in vivo, 672 h, dose 50-250 µg
# MIA PaCa-2 [13] = test: Antitumor activity against human MIA PaCa-2 cells xenografted in athymic BALB/c-nu mouse assessed as reduction in mean tumor volume at 50 ug, ip administered 5 times per week for 4 weeks and measured on day 32 (reference value: 1642 mm3); type: functional; conditions: dose 50 µg
# [14] = Toxicity in athymic BALB/c-nu mouse xenografted with human MIA PaCa-2 cells assessed as changes in body weight at 50 to 250 ug, ip administered 5 times per week for 4 weeks and measured twice weekly; type: organism-based; conditions: in vivo, 672 h, dose 50-250 µg
# MIA PaCa-2 [15] = test: Antitumor activity against human MIA PaCa-2 cells xenografted in athymic BALB/c-nu mouse assessed as changes in gross appearance of tumor at 50 to 250 ug, ip administered 5 times per week for 4 weeks; type: functional, organism-based; conditions: dose 50-250 µg
# PANC-1 [16] = test: Disruption of plasma membrane integrity in human PANC-1 cells in nutrient-deprived medium assessed as leakage of cellular contents by measuring increase in red fluorescence at 1 uM incubated for 24 hrs by dual fluorescent staining based microscopic analysis; type: functional, cell-based
# MIA PaCa-2 [17] = test: Antitumor activity against human MIA PaCa-2 cells xenografted in athymic BALB/c-nu mouse assessed as reduction in mean tumor volume at 250 ug, ip administered 5 times per week for 4 weeks and measured on day 32 (reference value: 1642 mm3); type: functional; conditions: dose 250 µg
# MIA PaCa-2 [18] = test: Antitumor activity against human MIA PaCa-2 cells xenografted in athymic BALB/c-nu mouse assessed as reduction in blood vessels at 50 to 250 ug, ip administered 5 times per week for 4 weeks; type: functional, organism-based; conditions: dose 50-250 µg
# PANC-1 [19] = test: Disruption of plasma membrane integrity in human PANC-1 cells in nutrient-deprived medium assessed as rupture of the cell membrane by measuring increase in red fluorescence at 1 uM incubated for 24 hrs by dual fluorescent staining based microscopic analysis; type: functional
# PANC-1 [20] = test: Disruption of plasma membrane integrity in human PANC-1 cells in nutrient-deprived medium assessed as rounded cell morphology by measuring increase in red fluorescence at 1 uM incubated for 24 hrs by dual fluorescent staining based microscopic analysis; type: functional
# MIA PaCa-2 [21] = test: Antitumor activity against human MIA PaCa-2 cells xenografted in athymic BALB/c-nu mouse assessed as reduction in mean tumor volume at 50 ug, ip administered 5 times per week for 4 weeks and measured on day 18 (reference value: 447 mm3); type: functional; conditions: dose 50 µg
SMILES,IC50 (PANC-1 [1]) [µM],Ratio [2],PC50 (PANC-1 [3]) [µM],further results
O=C1C=C(CC2CCCCC2)C(=O)c2c(O)cccc21,31.9,42.9,0.74,
O=C1C(CC2CCCC2)=CC(=O)c2c(O)cccc21,8.4,21,0.4,
CCCC1=CC(=O)c2c(O)cccc2C1=O,15.6,34.7,0.45,
Cc1ccc(CC2=CC(=O)c3ccccc3C2=O)cc1,76.2,16.3,4.67,
CCC1=CC(=O)c2c(O)cccc2C1=O,31.6,21.6,1.46,
CCC1=CC(=O)c2cccc(O)c2C1=O,8.56,8.2,1.05,
CCC1=CC(=O)c2c(OC)cccc2C1=O,103,4.86,21.2,
CCCC1=CC(=O)c2ccccc2C1=O,39.1,11,3.55,
O=C1C(CC2CCCCC2)=CC(=O)c2c(O)cccc21,47.2,429,0.11,Activity (MIA PaCa-2 [4]): 107.6 mg; inhibition [5]: Tde; Activity (MIA PaCa-2 [6]): 166 mm3; Activity (MIA PaCa-2 [7]): 205.8 mg; Activity [8]: Non-Toxic; inhibition [9]: Dose-Dependent Effect; Activity (PANC-1 [10]): Active; inhibition [11]: Active; Activity [12]: Non-Toxic; Activity (MIA PaCa-2 [13]): 763 mm3; Activity [14]: Non-Toxic; Activity (MIA PaCa-2 [15]): Active; Activity (PANC-1 [16]): Active; Activity (MIA PaCa-2 [17]): 446 mm3; Activity (MIA PaCa-2 [18]): Active; Activity (PANC-1 [19]): Active; Activity (PANC-1 [20]): Active; Activity (MIA PaCa-2 [21]): 210 mm3
O=C1C=C(Cc2cccc(Cl)c2)C(=O)c2ccccc21,46.7,16.4,2.84,
CCC1=CC(=O)c2ccccc2C1=O,39.7,33.1,1.2,
CC1=CC(=O)c2c(O)cccc2C1=O [PLUMBAGIN],23.7,15.4,1.54,
O=C1C=C(CC2CCCCC2)C(=O)c2ccccc21,66.9,69.9,0.96,
CC(C)CC1=CC(=O)c2c(O)cccc2C1=O,12.9,33.1,0.39,
O=C1C(CC2CCCCCC2)=CC(=O)c2c(O)cccc21,4.22,5.41,0.78,
